The values that follow come from publication PMC8752837, “Structural basis of BAK activation in mitochondrial apoptosis initiation” (Nature Communications, 2022).

Read-outs that look alike come from different tables or passages of the source.

The target in one experiment is T1, GST-BAK (Homo sapiens, UniProt Q16611).
T1 construct: made in house
T1 sequence (Q16611 1-211): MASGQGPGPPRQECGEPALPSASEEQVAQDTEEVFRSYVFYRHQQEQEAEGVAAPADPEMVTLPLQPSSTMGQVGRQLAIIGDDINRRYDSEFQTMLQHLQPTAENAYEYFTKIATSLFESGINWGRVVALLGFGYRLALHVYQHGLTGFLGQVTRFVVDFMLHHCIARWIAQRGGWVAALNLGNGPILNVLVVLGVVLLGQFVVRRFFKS
The experiment is described as follows: Competitive fluorescence polarization assay (displacement of BID BH3 SAHB-F). Type of experiment: binding. The conditions noted are these: competitive FP. An excerpt: We also tested the monosubstituted peptides in competitive fluorescence polarization (FP) binding assays, which measure displacement from GST-BAK of BID BH3 stabilized alpha helix of BCL-2 proteins (SAHB) C-terminally tagged with fluorescein and thus informs on peptide binding affinity.
We carried out fluorescence polarization assays, measuring the displacement of the fluorescent peptide BID BH3 SAHB-F from GST-BAK, in 384-well Greiner black polystyrene plates with flat bottom (Sigma-Aldrich). Master mix consisted of 50 mM Tris-HCl pH 7.5, 50 mM KCl, 0.1 mg/mL BSA, 2 mM DTT, 0.005% Tween-20, 10 nM BID BH3 SAHB-F, and 1 µM GST-BAK. We pin transferred peptides using Biomek FX (Beckman Coulter Life Sciences, IN) to achieve final concentration of 500−0.2 µM in 20 µL final volume. We gently centrifuged plates to remove air bubbles for 1 min at 1000 rpm, and incubated them for 60 min at RT. […] Free peptide controls in each plate consisted of only BID BH3 SAHB-F and bound peptide controls containing BID BH3 SAHB-F + GST-BAK. We derived Z’-values using the equation [1 − 3(stdev^L + stdev^H)]/(average^H − average^L), where L is the free peptide control and H is the bound peptide control. […] We processed and visualized data using the software Robust Investigation of Screening Experiments (RISE) developed in house in the Pipeline Pilot platform (Accelrys, v.8.5.0). We performed at least three independent dose-response experiments for each peptide. We estimated IC50 values in RISE and GraphPad Prism v.8.0a.

The target in the next experiment is T2, WT tevBAK (Homo sapiens, UniProt Q16611).
T2 construct: To generate tevBAK (residues 22–186), we cleaved off the histidine tag with TEV protease; His tag (vector pNIC28-Bsa4) (N, cleaved yes); made in house; host or cells: E. coli T7 Express pLac I/Y
T2 sequence (Q16611 22-186): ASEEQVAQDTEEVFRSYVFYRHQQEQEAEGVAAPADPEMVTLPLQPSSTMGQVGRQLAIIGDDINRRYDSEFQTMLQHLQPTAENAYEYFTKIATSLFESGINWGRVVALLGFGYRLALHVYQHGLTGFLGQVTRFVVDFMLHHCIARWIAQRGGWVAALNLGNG
The experiment is described as follows: Isothermal titration calorimetry. Type of experiment: binding. The conditions noted are these: 25 °C; single site binding model. The method, then: Protein samples were exchanged into 20 mM HEPES, 100 mM NaCl and 1 mM TCEP prior to the experiment. Titrations were performed by first injecting 0.5 μl of 250 or 500 µM BID BH3 peptides into a solution of 20 or 50 µM BAK followed by additional 2 μl injections. […] Results were analyzed using Origin software (OriginLab) provided by MicroCal. Binding constants (KD) and thermodynamic parameters were calculated from the average of two or three individual titrations by fitting the data to a single site binding model using a nonlinear least-squares fitting algorithm.

The next experiment deals with T3, Human BAK-∆TM-His6 (BAK) (Homo sapiens, UniProt Q16611).
T3 construct: C-terminus truncated recombinant human BAK containing C-terminal 6× histidine tag (MEAS-BAK); made in house; host or cells: E. coli T7 Express pLac I/Y
T3 sequence (Q16611 1-186 limits assumed): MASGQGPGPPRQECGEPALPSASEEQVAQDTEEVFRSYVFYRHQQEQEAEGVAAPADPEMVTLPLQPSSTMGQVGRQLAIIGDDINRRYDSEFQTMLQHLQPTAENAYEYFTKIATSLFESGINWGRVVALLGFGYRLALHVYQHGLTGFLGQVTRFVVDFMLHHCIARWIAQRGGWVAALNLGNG
The conditions noted are these: ref Moldoveanu et al NSMB (2013) 20:589; cited from earlier work. An excerpt: page 33: helix 1 to be important, and the idea that this could be achieved through somewhat different molecular interactions is neither surprising nor novel. We appreciate the reviewer’s viewpoint but respectfully disagree. We clarify the distinction between W(3)W(5) BID BH3 and BIM-h3Pc-RT inactivated complexes by explaining that stabilization of helix 1 is through indirect contacts in the former (allosteric) and through direct contact in the latter “glue-like” complex. This distinction is now discussed in the highlighted region on pg. 16 being key for the design of small molecule BH3 mimetic ...

Regarding `CC[C@H](C)[C@H](NC(=O)[C@H](CO)NC(=O)[C@H](CCCNC(=N)N)NC(=O)[C@H](CC(=O)O)NC(=O)[C@H](CCSC)NC(=O)[C@H](CO)NC(=O)[C@H](CC(=O)O)NC(=O)CNC(=O)[C@@H](NC(=O)[C@H](CCC(N)=O)NC(=O)[C@H](C)NC(=O)[C@H](CC(C)C)NC(=O)[C@H](Cc1c[nH]cn1)NC(=O)[C@H](CCCNC(=N)N)NC(=O)[C@H](C)NC(=O)[C@@H](NC(=O)[C@H](CC(N)=O)NC(=O)[C@H](CCCNC(=N)N)NC(=O)[C@@H](NC(=O)[C@@H](NC(=O)[C@H](CC(=O)O)NC(=O)[C@H](CCC(=O)O)NC(C)=O)[C@@H](C)CC)[C@@H](C)CC)[C@@H](C)CC)C(C)C)C(N)=O` [WT BID BH3, reference compound], the IC50 on GST-BAK (Experiment-1) stood at 12.73 µM; at GST-BAK (Experiment-2), 6.926 µM; at GST-BAK (Experiment-3), 15.45 µM; at GST-BAK (Experiment-4), 8.804 µM; at GST-BAK (Experiment-5), 11 µM; on GST-BAK (Experiment-6), 9.271 µM. For the same compound, the IC50 on GST-BAK (Experiment-7) worked out at 11.57 µM; at GST-BAK (Experiment-9), 22.17 µM; on GST-BAK (mean of the experiments (replicated 4-9 times), read-out: IC50 Mean) it was 12.2 µM. In addition, at WT tevBAK, the “ITC -T∆S” value came to 0.41 ± 0.11 kcal/mol. Moreover, the “ITC ∆G” value at WT tevBAK was -6.34 ± 0.04 kcal/mol. Also, the “ITC ∆H” value at WT tevBAK was -6.75 ± 0.07 kcal/mol. In addition, the “fold less potent than activated full-length BID (N/C BID)” value at Human BAK-∆TM-His6 (BAK) is ~ 100 x.
